{
  "source": "ChEMBL document CHEMBL3272153",
  "about": "“Synthetic inhibitors of Escherichia coli, calf thymus, and Ehrlich ascites tumor thymidylate synthetase” (J Med Chem, 1976)",
  "key": {"[1]": {"assay": "Selectivity ratio of Ki/Km for calf thymus thymidylate synthetase to Ki/Km for thymidylate synthetase in mouse Ehrlich ascites tumor cells"}, "[2]": {"assay": "Competitive inhibition of calf thymus thymidylate synthetase using 5-[3H]-dUMP as substrate after 10 mins by scintillation counting analysis", "parameters": "species or system Bos taurus"}, "[3]": {"assay": "Competitive inhibition of thymidylate synthetase in mouse Ehrlich ascites tumor cells using 5-[3H]-dUMP as substrate after 7 mins by scintillation counting analysis"}, "Bos taurus [4]": {"species": "Bos taurus", "assay": "Ratio of Ki to Km for calf thymus thymidylate synthetase"}, "[5]": {"assay": "Competitive inhibition of Escherichia coli thymidylate synthetase using 5-[3H]-dUMP as substrate after 7 mins by scintillation counting analysis"}, "Mus musculus [6]": {"species": "Mus musculus", "assay": "Ratio of Ki to Km for thymidylate synthetase in mouse Ehrlich ascites tumor cells"}, "[7]": {"assay": "Non-competitive inhibition of calf thymus thymidylate synthetase using 5-[3H]-dUMP as substrate after 10 mins by scintillation counting analysis", "parameters": "species or system Bos taurus"}, "[8]": {"assay": "Inhibition of Escherichia coli thymidylate synthetase using 5-[3H]-dUMP as substrate"}, "Mus musculus [9]": {"species": "Mus musculus", "assay": "Irreversible inactivation of thymidylate synthetase in mouse Ehrlich ascites tumor cells assessed as enzyme activity using dUMP as substrate at 0.33 mM preincubated for 3 hrs in absence of cofactor tetrahydrofolate"}, "Bos taurus [10]": {"species": "Bos taurus", "assay": "Irreversible inactivation of calf thymus thymidylate synthetase assessed as enzyme activity using dUMP as substrate at 0.33 mM preincubated for 3 hrs in absence of cofactor tetrahydrofolate"}, "Bos taurus [11]": {"species": "Bos taurus", "assay": "Irreversible inactivation of calf thymus thymidylate synthetase assessed as enzyme activity using dUMP as substrate at 0.33 mM preincubated for 3 hrs in presence of cofactor tetrahydrofolate"}, "Mus musculus [12]": {"species": "Mus musculus", "assay": "Irreversible inactivation of thymidylate synthetase in mouse Ehrlich ascites tumor cells assessed as enzyme activity using dUMP as substrate at 0.33 mM preincubated for 3 hrs in presence of cofactor tetrahydrofolate"}, "[13]": {"assay": "Retardation factor of the compound", "format": "physicochemical"}},
  "data": [
    {"smiles": "O=c1[nH]c(=O)n([C@H]2C[C@H](O)[C@@H](COP(=O)(O)O)O2)cc1COCc1ccccc1", "values": [
      {"measurement": "Selectivity ratio", "setting": "[1]", "value": 2},
      {"measurement": "Ki", "setting": "[2]", "value": 42, "unit": "µM"},
      {"measurement": "Ki", "setting": "[3]", "value": 9, "unit": "µM"},
      {"measurement": "Ki/Km", "setting": "Bos taurus [4]", "value": 4.6},
      {"measurement": "Ki", "setting": "[5]", "value": 25, "unit": "µM"},
      {"measurement": "Ki/Km", "setting": "Mus musculus [6]", "value": 2.2}
    ]},
    {"smiles": "O=Cc1cn([C@H]2C[C@H](O)[C@@H](COP(=O)(O)O)O2)c(=O)[nH]c1=O", "values": [
      {"measurement": "Selectivity ratio", "setting": "[1]", "value": 0.5},
      {"measurement": "Ki", "setting": "[7]", "value": 0.09, "unit": "µM"},
      {"measurement": "Ki", "setting": "[3]", "value": 0.08, "unit": "µM"},
      {"measurement": "Ki/Km", "setting": "Bos taurus [4]", "value": 0.01},
      {"measurement": "Ki", "setting": "[5]", "value": 0.1, "unit": "µM"},
      {"measurement": "Ki", "setting": "[8]", "value": 0.013, "unit": "µM"},
      {"measurement": "Ki/Km", "setting": "Mus musculus [6]", "value": 0.02}
    ]},
    {"smiles": "[N-]=[N+]=NCc1cn([C@H]2C[C@H](O)[C@@H](COP(=O)(O)O)O2)c(=O)[nH]c1=O", "values": [
      {"measurement": "Selectivity ratio", "setting": "[1]", "value": 1.9},
      {"measurement": "Ki", "setting": "[2]", "value": 21, "unit": "µM"},
      {"measurement": "Ki", "setting": "[3]", "value": 5, "unit": "µM"},
      {"measurement": "Activity", "setting": "Mus musculus [9]", "value": 60, "unit": "%"},
      {"measurement": "Activity", "setting": "Bos taurus [10]", "value": 77, "unit": "%"},
      {"measurement": "Ki/Km", "setting": "Bos taurus [4]", "value": 2.3},
      {"measurement": "Ki", "setting": "[5]", "value": 18, "unit": "µM"},
      {"measurement": "Activity", "setting": "Bos taurus [11]", "value": 83, "unit": "%"},
      {"measurement": "Ki/Km", "setting": "Mus musculus [6]", "value": 1.2},
      {"measurement": "Activity", "setting": "Mus musculus [12]", "value": 87, "unit": "%"}
    ]},
    {"smiles": "O=c1[nH]c(=O)n([C@H]2C[C@H](O)[C@@H](COP(=O)(O)O)O2)cc1CC1CO1", "note": "(stereo not given in full)", "values": [
      {"measurement": "Selectivity ratio", "setting": "[1]", "value": 1},
      {"measurement": "Ki", "setting": "[2]", "value": 33, "unit": "µM"},
      {"measurement": "Rf", "setting": "[13]", "value": 0.45},
      {"measurement": "Ki", "setting": "[3]", "value": 14, "unit": "µM"},
      {"measurement": "Activity", "setting": "Mus musculus [9]", "value": 94, "unit": "%"},
      {"measurement": "Activity", "setting": "Bos taurus [10]", "value": 104, "unit": "%"},
      {"measurement": "Ki/Km", "setting": "Bos taurus [4]", "value": 3.6},
      {"measurement": "Ki", "setting": "[5]", "value": 25, "unit": "µM"},
      {"measurement": "Activity", "setting": "Bos taurus [11]", "value": 85, "unit": "%"},
      {"measurement": "Ki/Km", "setting": "Mus musculus [6]", "value": 3.5},
      {"measurement": "Activity", "setting": "Mus musculus [12]", "value": 120, "unit": "%"}
    ]},
    {"smiles": "C=CCc1cn([C@H]2C[C@H](O)[C@@H](COP(=O)(O)O)O2)c(=O)[nH]c1=O", "values": [
      {"measurement": "Selectivity ratio", "setting": "[1]", "value": 1.4},
      {"measurement": "Ki", "setting": "[2]", "value": 130, "unit": "µM"},
      {"measurement": "Rf", "setting": "[13]", "value": 0.55},
      {"measurement": "Ki", "setting": "[3]", "value": 40, "unit": "µM"},
      {"measurement": "Ki/Km", "setting": "Bos taurus [4]", "value": 14},
      {"measurement": "Ki", "setting": "[5]", "value": 135, "unit": "µM"},
      {"measurement": "Ki/Km", "setting": "Mus musculus [6]", "value": 10}
    ]},
    {"smiles": "COCc1cn([C@H]2C[C@H](O)[C@@H](COP(=O)(O)O)O2)c(=O)[nH]c1=O", "values": [
      {"measurement": "Selectivity ratio", "setting": "[1]", "value": 0.7},
      {"measurement": "Ki", "setting": "[2]", "value": 32, "unit": "µM"},
      {"measurement": "Ki", "setting": "[3]", "value": 19, "unit": "µM"},
      {"measurement": "Ki/Km", "setting": "Bos taurus [4]", "value": 3.5},
      {"measurement": "Ki", "setting": "[5]", "value": 42, "unit": "µM"},
      {"measurement": "Ki/Km", "setting": "Mus musculus [6]", "value": 4.7}
    ]},
    {"smiles": "O=c1[nH]c(=O)n([C@H]2C[C@H](O)[C@@H](COP(=O)(O)O)O2)cc1CO", "values": [
      {"measurement": "Selectivity ratio", "setting": "[1]", "value": 3},
      {"measurement": "Ki", "setting": "[2]", "value": 4, "unit": "µM"},
      {"measurement": "Ki", "setting": "[3]", "value": 0.6, "unit": "µM"},
      {"measurement": "Ki/Km", "setting": "Bos taurus [4]", "value": 0.44},
      {"measurement": "Ki", "setting": "[5]", "value": 4, "unit": "µM"},
      {"measurement": "Ki", "setting": "[8]", "value": 10.5, "unit": "µM"},
      {"measurement": "Ki/Km", "setting": "Mus musculus [6]", "value": 0.15}
    ]},
    {"smiles": "CC(=O)c1cn([C@H]2C[C@H](O)[C@@H](COP(=O)(O)O)O2)c(=O)[nH]c1=O", "values": [
      {"measurement": "Selectivity ratio", "setting": "[1]", "value": 1.5},
      {"measurement": "Ki", "setting": "[2]", "value": 73, "unit": "µM"},
      {"measurement": "Ki", "setting": "[3]", "value": 22, "unit": "µM"},
      {"measurement": "Ki/Km", "setting": "Bos taurus [4]", "value": 8.1},
      {"measurement": "Ki", "setting": "[5]", "value": 64, "unit": "µM"},
      {"measurement": "Ki/Km", "setting": "Mus musculus [6]", "value": 5.5}
    ]}
  ]
}
